In patent US20060265769A1, “Gab2 (p97) gene and methods of use thereof” (Beth Israel Deaconess Medical Center, Inc., priority 2000, published 2006):

Columns and labels:
[1] = system: BaF3 cells; experiment: IL-3-induced c-fos promoter luciferase reporter assay; format: cell-based; settings: IL-3 stimulation
Experimental: Therefore, the role of Gab2 in IL-3-induced c-fos promoter activity was assessed. For c-fos reporter assays, 1.5 μg of c-fos promoter (nt −710 to +42)-luciferase reporter were used (Hu et al., Science 268, 100-102 (1995)). STAT-driven transctivation was measured using 1.5 μg of a GAS-luciferase reporter (Jaster et al., Mol. Cell. Biol. 3364-3372 (1997)). For Elk assays, Gal4-Elk-1 (2 μg) and Gal4-luciferase (1 μg) were used (Bennett et al., Mol. Cell. Biol. 16, 1189-1202 (1996)). Cells were electroporated at 300V/800 μF, transferred to fresh RPMI/10% WEHI supernatant/10% FCS and, after three hours, were starved in RPMI/10% FCS. Twelve hours post-transfection, transfected cells (approximately 10^6/condition) were incubated in RPMI/10% FCS alone or with murine IL-3 (1 ng/ml) for two hours. Luciferase assays were performed with a kit (Promega, Madison, Wis.). Promoter activities were normalized to Renilla luciferase levels.

[2] = system: MCF10A cells; experiment: Proliferation of MCF10A cells in three-dimensional culture (Ki67 staining); format: cell-based, human; settings: Gab2-overexpressing MCF10A, days 6 and 15 of culture; UO 15 μM on days 13 and 14 (FIG. 15F)
[3] = system: MCF10A cells; settings: treated on days 1 and 2, acini at 9 days (FIG. 15G)

SMILES	IL-3-induced c-fos luciferase activity [1]	effects of Gab2 overexpression on the proliferation of MCF10A [2]	cooperation of Gab2 with Neu [3]
COc1cccc(-c2cc(=O)c3ccccc3o2)c1N [PD98059]	ablated		
N#CC(=C(/N)Sc1ccccc1N)/C(C#N)=C(/N)Sc1ccccc1N [UO126]		abolished	blocked
